This is an account of results in patent US7504403B2, “Substituted heterocyclic compounds and methods of use” (Amgen Inc., priority 2004, dated 2009).

The assay relates to LPS induced TNF release. The experiment in a line: Lipopolysaccharide-Activated THP1 Cell TNF Production Assay. The format is cell-based. To be noted: Homo sapiens, THP-1. As for the experimental part:
Lipopolysaccharide-Activated THP1 Cell TNF Production Assay
THP1 cells are resuspended in fresh THP1 media (RPMI 1640, 10% heat-inactivated FBS, 1×PGS, 1×NEAA, plus 30 μM βME) at a concentration of 1E6/mL. One hundred microliters of cells per well are plated in a polystyrene 96-well tissue culture. One microgram per mL of bacterial LPS is prepared in THP1 media and is transferred to the wells. Test compounds are dissolved in 100% DMSO and are serially diluted 3 fold in a polypropylene 96-well microtiter plate (drug plate). HI control and LO control wells contain only DMSO. One microliter of test compound from the drug plate followed by 10 μL of LPS are transferred to the cell plate. The treated cells are induced to synthesize and secrete TNF-α at 37° C. for 3 h. Forty microliters of conditioned media are transferred to a 96-well polypropylene plate containing 110 μL of ECL buffer (50 mM Tris-HCl pH 8.0, 100 mM NaCl, 0.05% Tween 20, 0.05% NaN3 and 1%FBS) supplemented with 0.44 nM MAB610 monoclonal Ab (R&D Systems), 0.34 nM ruthenylated AF210NA polyclonal Ab (R&D Systems) and 44 μg/mL sheep anti-mouse M280 Dynabeads (Dynal). After a 2 h incubation at room temperature with shaking, the reaction is read on the ECL M8 Instrument (IGEN Inc.). A low voltage is applied to the ruthenylated TNF-α immune complexes, which in the presence of TPA (the active component in Origlo), results in a cyclical redox reaction generating light at […]. The amount of secreted TNF-α in the presence of compound compared with that in the presence of DMSO vehicle alone (HI control) is calculated using the formula: % control (POC)=(cpd−average LO)/(average HI−average LO)*100. Data (consisting of POC and inhibitor concentration in μM) is fitted to a 4-parameter equation (y=A+((B−A)/(1+((x/C)^D))), where A is the minimum y (POC) value, B is the maximum y (POC), C is the x (cpd concentration) at the point of inflection and D is the slope factor) using a Levenburg-Marquardt non-linear regression algorithm.

In general, IC50 refers to the concentration that gives 50% inhibition. Consider `O=c1c([N+](=O)[O-])c(-c2ccccc2)nc2n1CCCN2c1ccnc(NCCc2ccccc2)n1` [Example 15, 3-Nitro-9-(2-phenethylamino-pyrimidin-4-yl)-2-phenyl-6,7,8,9-tetrahydro-pyrimido[1,2-a]pyrimidin-4-one], for which the IC50 was ≤ 20 µM.

As to `Nc1c(-c2ccccc2)nc2n(c1=O)CCCN2c1ccnc(NCCc2ccccc2)n1` [Example 18, 3-Amino-9-(2-phenethylamino-pyrimidin-4-yl) -2-phenyl-6,7,8,9-tetrahydro-pyrimido[1,2-a]pyrimidin-4-one], the IC50 was ≤ 20 µM.

On to `CC(C)NCc1cccc(CC(C)Nc2nccc(N3CCCn4c3nc(-c3ccccc3)cc4=O)n2)c1` (stereo not drawn) [Example 19, 9-(2-{2-[3-(Isopropylamino-methyl)-phenyl]-1-methyl-ethylamino}-pyrimidin-4-yl) -2-phenyl-6,7,8,9-tetrahydro-pyrimido[1,2-a]pyrimidin-4-one], for which the IC50 is ≤ 20 µM.

With `O=c1cc(-c2ccccc2)nc2n1CCCN2c1ccnc(NCc2ccccc2)n1` [Example 29, 9-(2-{2-(benzyl)amino}-pyrimidin-4-yl)-2-phenyl-6,7,8,9-tetrahydro-pyrimido[1,2-a]pyrimidin-4-one], the IC50 is ≤ 20 µM.

Take `Nc1nccc(N2CCCn3c2nc(-c2ccccc2)cc3=O)n1` [Example 38, 9-(2-{2-amino}-pyrimidin-4-yl)-2-phenyl-6,7,8,9-tetrahydro-pyrimido[1,2-a]pyrimidin-4-one]: the IC50 is ≤ 20 µM.

Take `CC(Cc1cccc(CN)c1)Nc1nccc(N2CCCn3c2nc(-c2ccccc2)cc3=O)n1` (stereo not drawn) [Example 44, 9-{2-[2-(3-Aminomethyl-phenyl)-1-methyl-ethylamino]-pyrimidin-4-yl}-2-phenyl-6,7,8,9-tetrahydro-pyrimido[1,2-a]pyrimidin-4-one]: the IC50 was ≤ 20 µM.

With `CC(Cc1cccc(CO)c1)Nc1nccc(N2CCCn3c2nc(-c2ccccc2)cc3=O)n1` (stereo not drawn) [Example 47, 9-{2-[2-(3-Hydroxymethyl-phenyl)-1-methyl-ethylamino]-pyrimidin-4-yl}-2-phenyl-6,7,8,9-tetrahydro-pyrimido[1,2-a]pyrimidin-4-one], the IC50 was ≤ 20 µM.

Consider `C[C@@H](Cc1cccc(CN)c1)Nc1nccc(N2CCCn3c2nc(-c2ccccc2)cc3=O)n1` [Example 49, 9-{2-[2-(3-Aminomethyl-phenyl)-1(S)-methyl-ethylamino]-pyrimidin-4-yl}-2-phenyl-6,7,8,9-tetrahydro-pyrimido[1,2-a]pyrimidin-4-one], for which the IC50 is ≤ 20 µM.

Regarding `CC(C)NCCC1CN(c2ccnc(NCCc3ccccc3)n2)c2nc(-c3ccccc3)cc(=O)n2C1` (stereo not drawn) [Example 50, 7-(2-Isopropylamino-ethyl)-9-(2-phenethylamino-pyrimidin-4-yl) -2-phenyl-6,7,8,9-tetrahydro-pyrimido[1,2-a]pyrimidin-4-one], the IC50 was ≤ 20 µM.

As to `NCCC1CN(c2ccnc(NCCc3ccccc3)n2)c2nc(-c3ccccc3)cc(=O)n2C1` (stereo not drawn) [Example 51, 7-(2-Amino-ethyl)-9-(2-phenethylamino-pyrimidin-4-yl)-2-phenyl-6,7,8,9-tetrahydro-pyrimido[1,2-a]pyrimidin-4-one], the IC50 was ≤ 20 µM.

As to `O=C(NCCC1CN(c2ccnc(NCCc3ccccc3)n2)c2nc(-c3ccccc3)cc(=O)n2C1)OCc1ccccc1` (stereo not drawn) [Example 52, {2-[6-Oxo-1-(2-phenethylamino-pyrimidin-4-yl)-8-phenyl-1,3,4,6-tetrahydro-2H-pyrimido[1,2-a]pyrimidin-3-yl]-ethyl}-carbamic acid benzyl ester], the IC50 is ≤ 20 µM.

`CCOC(=O)CCC1CN(c2ccnc(NCCc3ccccc3)n2)c2nc(-c3ccccc3)cc(=O)n2C1` (stereo not drawn) [Example 54, 3-[6-oxo-1-(2-phenethylamino-pyrimidin-4-yl)-8-phenyl-1,3,4,6-tetrahydro-2H-pyrimido[1,2-a]pyrimidin-3-yl]-propionic acid ethyl ester]: the half-maximal inhibitory concentration (IC50) is ≤ 20 µM.

In the case of `O=C(O)CCC1CN(c2ccnc(NCCc3ccccc3)n2)c2nc(-c3ccccc3)cc(=O)n2C1` (stereo not drawn) [Example 55, 3-[6-Oxo-1-(2-phenethylamino-pyrimidin-4-yl)-8-phenyl-1,3,4,6-tetrahydro-2H-pyrimido[1,2-a]pyrimidin-3-yl]-propionic acid], the IC50 is ≤ 20 µM.

Turning to `CC(C)NC(C)c1ccc(CCNc2nccc(N3CCC(=O)N4CC=C(c5ccccc5)N=C43)n2)cc1` (stereo not drawn) [Example 62, 1-(2-{2[4-(1-Isopropylamino-ethyl)-phenyl]-ethylamino}-pyrimidin-4-yl)-8-phenyl-1,2,3,6-tetrahydro-pyrimido[1,2-a]pyrimidin-4-one], the IC50 was ≤ 20 µM.

Regarding `CC(Cc1ccc(CN)cc1)Nc1nccc(N2CCC(=O)N3CC=C(c4ccccc4)N=C32)n1` (stereo not drawn) [Example 63, 1-{2-[2-(4-Aminomethyl-phenyl)-1-methyl-ethylamino]-pyrimidin-4-yl}-8-phenyl-1,2,3,6-tetrahydro-pyrimido[1,2-a]pyrimidin-4-one], the IC50 is ≤ 20 µM.

On to `CC(N)Cc1ccc(CC(C)Nc2nccc(N3CCC(=O)N4CC=C(c5ccccc5)N=C43)n2)cc1` (stereo not drawn) [Example 64, 1-(2-{2-[4-(2-Amino-propyl)-phenyl]-1-methyl-ethylamino}-pyrimidin-4-yl)-8-phenyl-1,2,3,6-tetrahydro-pyrimido[1,2-a]pyrimidin-4-one], for which the IC50 was ≤ 20 µM.

For the compound `CC(Cc1cccc(C(C)(C)N)c1)Nc1nccc(N2CCC(=O)N3CC=C(c4ccccc4)N=C32)n1` (stereo not drawn) [Example 65, 1-(2-{2-[3-(1-Amino-1-methyl-ethyl)-phenyl]-1-methyl-ethylamino}-pyrimidin-4-yl)-8-phenyl-1,2,3,6-tetrahydro-pyrimido[1,2-a]pyrimidin-4-one], the half-maximal inhibitory concentration (IC50) is ≤ 20 µM.

Turning to `CC(Nc1nccc(N2CC(O)Cn3c2nc(-c2ccccc2)cc3=O)n1)c1ccccc1` (stereo not drawn) [Example 66, 7-Hydroxy-2-phenyl-9-[2-(1-phenyl-ethylamino)-pyrimidin-4-yl]-6,7,8,9-tetrahydro-pyrimido[1,2-a]pyrimidin-4-one], the half-inhibitory concentration (IC50) was ≤ 20 µM.

As to `O=c1cc(-c2ccccc2)cc2n1CCCN2c1ccnc(NCCc2ccccc2)n1` [Example 74, 1-(2-Phenethylamino-pyrimidin-4-yl)-8-phenyl-1,2,3,4-tetrahydro-pyrido[1,2-a]pyrimidin-6-one], the 50% inhibitory concentration (IC50) was ≤ 20 µM.

On to `O=c1cc(-c2ccccc2)cc2n1CCCN2c1ccnc(NCCc2ccccc2Cl)n1` [Example 75, 1-{2-[2-(2-Chloro-phenyl)-ethylamino]-pyrimidin-4-yl}-8-phenyl-1,2,3,4-tetrahydro-pyrido[1,2-a]pyrimidin-6-one], for which the IC50 is ≤ 20 µM.

As for `O=c1cc(-c2ccccc2)cc2n1CCCN2c1ccnc(NCCc2c(Cl)cccc2Cl)n1` [Example 76, 1-{2-[2-(2,6-Dichloro-phenyl)-ethylamino]-pyrimidin-4-yl}-8-phenyl-1,2,3,4-tetrahydro-pyrido[1,2-a]pyrimidin-6-one], the half-inhibitory concentration (IC50) is ≤ 20 µM.

For the compound `O=c1cc(-c2ccccc2)cc2n1CCCN2c1ccnc(NCCc2ccc(Cl)cc2Cl)n1` [Example 77, 1-{2-[2-(2,4-Dichloro-phenyl)-ethylamino]-pyrimidin-4-yl}-8-phenyl-1,2,3,4-tetrahydro-pyrido[1,2-a]pyrimidin-6-one], the IC50 is ≤ 20 µM.

As to `C[C@H](Nc1nccc(N2CCCn3c2cc(-c2ccccc2)cc3=O)n1)c1ccccc1` [Example 78], the IC50 was ≤ 20 µM.

On to `C[C@H](CNc1nccc(N2CCCn3c2cc(-c2ccccc2)cc3=O)n1)c1ccccc1` [Example 79], for which the IC50 was ≤ 20 µM.
